The text below walks through data of patent US6844020B2, “Solutions of carotenoids for use in foods and personal care products” (Kemin Foods, L.C., priority 2002, dated 2005).

“And” between values parts separate entries of the source, which are not always exact repeats. Equal values may be shown once. Read-outs that look alike come from different tables or passages of the source.

The format of data set [1] is physicochemical. On the procedure:
(§1) Canthaxanthin was dissolved in each oil until visibly saturated. The sample was then blanketed with argon and sonicated for ten minutes. When the sample was completely saturated, the solution was transferred to a microcentrifuge tube and centrifuged at 14,000 rpm for 10 minutes. The clarified oil was then analyzed for canthaxanthin content. The method for analyzing lutein crystals was used to analyze canthaxanthin, however, a few modifications were made. First, methylene chloride was substituted for […] when dissolving the samples. […] When determining total carotenoids, the absorbance was measured at 466 nm rather than 446 nm. [formula] [formula] Results and Discussion

The conditions of data set [2]: cited from earlier work.
A short description of data set [3]: Beta-carotene solubility in essential oils. The data set is classed as physicochemical. On the procedure:
Beta-carotene was dissolved in each oil until visibly saturated. The sample was then blanketed with argon and sonicated for ten minutes. When the sample was completely saturated, the solution was transferred to a micro centrifuge tube and centrifuged at 14,000 rpm for 10 minutes. The clarified oil was then analyzed for beta-carotene content. The method for analyzing lutein crystals, with a few modifications, was used to analyze beta-carotene. First, methylene chloride was substituted for […] when dissolving the samples. Second, when determining total carotenoids, the absorbance was measured at 453 nm rather than 446 nm. [formula] [formula] [formula]
% Beta Carotene=% Carotenoids*(% Total HPLC area of Beta Carotene/100)

Data set [4] is described as follows: Zeaxanthin solubility in essential oils. Type of data set: physicochemical. As for the experimental part:
as §1, with “Zeaxanthin” for “Canthaxanthin”, “micro centrifuge” for “microcentrifuge”, “zeaxanthin” for “canthaxanthin”, “zeaxanthin,” for “canthaxanthin,”, “450” for “466”, “[formula]” for “Results and Discussion”
% Zeaxanthin=% Carotenoids*(% Total HPLC area of zeaxanthin/100)

For data set [5] the following is noted: consumption of lutein and zeaxanthin; Seddon et al., 1994; cited from earlier work.
Data set [6] in a line: Astaxanthin solubility in essential oils. Type of data set: physicochemical. As for the experimental part: as §1, with “Astaxanthin” for “Canthaxanthin”, “micro centrifuge” for “microcentrifuge”, “astaxanthin” for “canthaxanthin”, “astaxanthin,” for “canthaxanthin,”, “470” for “466”, “[formula] Canthaxanthin in Essentials Oils” for “Results and Discussion”
[7] abbreviates: in Carvacrol (clear oil), 282-197, lot 13403CI.
Where [8] appears, read: in Spearmint oil, 05-6250-11, lot SP43-0208.
The mark [9] stands for this setting: in Thyme oil, White, 05-6275-01, lot TLC11-T049.
The mark [10] stands for this setting: in Bay oil, 50-6025-01, lot BA41-0484.
Where [11] appears, read: in Cornmint, redistilled oil, 50-6100-01, lot CR43-0155.
Setting [12] is: in Peppermint, Yakima redistilled oil, 50-6225-21, lot PY43-0157.
Setting [13] is: in Spearmint, redistilled oil, 50-6250-11, lot 39SR-0163.
Setting [14] is: in Tea Tree oil, 50-6270-01, lot TX43-0146.
Where [15] appears, read: in Thyme, Pure oil, 50-6275-04, lot TP41-0053.
Setting [16] is: in Thyme, Red oil, 50-6275-02, lot TR43-0158.
[17] abbreviates: in Thyme, White oil, 50-6275-01, lot TLC11-T477.
Where [18] appears, read: in Thyme, White (NOW) oil, 7635.

Take `CC1=C(/C=C/C(C)=C/C=C/C(C)=C/C=C/C=C(C)/C=C/C=C(C)/C=C/C2=C(C)C(=O)CCC2(C)C)C(C)(C)CCC1=O` [Canthaxanthin, canthaxanthin]: the “% Canthaxanthin by HPLC” value in data set [1] (setting [7]) stood at 0.0020%; in data set [1] (setting [8]), 0.0028%; in data set [1] (setting [9]) it was 0.0036%.
Take `CC1=C(/C=C/C(C)=C/C=C/C(C)=C/C=C/C=C(C)/C=C/C=C(C)/C=C/C2=C(C)CCCC2(C)C)C(C)(C)CCC1` [Beta-carotene, β-carotene]: in data set [2] (in "fats and oils"), the reported solubility is recorded as 0.05-0.08%. The “% Beta-Carotene” value in data set [3] (setting [10]) is 0.16% and 0.163%; in data set [3] (setting [11]) it was 0.252%; in data set [3] (setting [12]), 0.263%; in data set [3] (setting [13]), 0.532%; in data set [3] (setting [14]), 0.427%; in data set [3] (setting [15]) it was 0.245%. Besides, the “% Beta-Carotene” value in data set [3] (setting [16]) amounted to 0.267%; in data set [3] (setting [17]) it was 0.273%.
As to `CC1=C(/C=C/C(C)=C/C=C/C(C)=C/C=C/C=C(C)/C=C/C=C(C)/C=C/C2=C(C)C[C@@H](O)CC2(C)C)C(C)(C)C[C@H](O)C1` [Zeaxanthin, zeaxanthin], the reported solubility in data set [2] (in corn oil) is 0.004%. Besides, the “% Carotenoids” value in data set [4] (setting [10]) is listed as 0.281%; in data set [4] (setting [11]), 0.403%; in data set [4] (setting [12]), 0.452%; in data set [4] (setting [13]), 0.374%; in data set [4] (in Tea Tree (NOW) oil, 7625), 0.398%; in data set [4] (setting [14]), 0.364%. For the same molecule, the “% Carotenoids” value in data set [4] (setting [15]) worked out at 0.920%; in data set [4] (setting [16]), 1.063%; in data set [4] (setting [18]) it was 0.784%; in data set [4] (setting [17]), 1.049%. Further, the “% Zeaxanthin” value in data set [4] (setting [10]) is reported as 0.276%; in data set [4] (setting [11]), 0.397%; in data set [4] (setting [12]), 0.446%; in data set [4] (setting [13]) it was 0.369%; in data set [4] (in Tea Tree (NOW) oil, 7625), 0.394%; in data set [4] (setting [14]), 0.361%. Besides, the “% Zeaxanthin” value in data set [4] (setting [15]) is on record as 0.916%; in data set [4] (setting [16]), 1.059%; in data set [4] (setting [18]), 0.782%; in data set [4] (setting [17]) it was 1.043%. Also, the zeaxanthin solubility entry in data set [4] (in all of the oils except the thyme oils) is on record as “less than 1%”; in data set [4] (in thyme oil), around 1%. The “reduction in age-related macular degeneration” value in data set [5] was 57%.
As for `CC1=C(/C=C/C(C)=C/C=C/C(C)=C/C=C/C=C(C)/C=C/C=C(C)/C=C/C2=C(C)C(=O)[C@@H](O)CC2(C)C)C(C)(C)C[C@H](O)C1=O` [Astaxanthin, astaxanthin], the “% Astaxanthin by HPLC” value in data set [6] (setting [7]) was 0.2420%; in data set [6] (in Carvacrol (clear oil), 282-197, lot 13403CI, listed as astaxanthin), around 0.24%; in data set [6] (setting [8]), 0.0301%; in data set [6] (setting [9]) it was 0.1876%. The “times less soluble than lutein” value in data set [6] (in spearmint oil) was 33 times; in data set [6] (in white thyme oil), 16 times.
